In ChEMBL document CHEMBL1909294, “Translating clinical findings into knowledge in drug safety evaluation--drug induced liver injury prediction system (DILIps)” (PLoS Comput Biol, 2011):

Assays:
[1] = system: Hepatotoxicity;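 on HepSE Combined Scores: combined hepatic side effect score as listed in the training data of the Drug Induced Liver Injury Prediction System (DILIps)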;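 on HepSE cholecystitis: Cholecystitis-related hepatic side effect score drawn from the DILIps (drug-induced liver injury prediction) training data set; call rule not given here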;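 on HepSE cirrhosis: cirrhosis hepatic side effect score taken from the DILIps (drug-induced liver injury prediction) training set; call rule not given here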;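 on HepSE hepatic necrosis: score of hepatic side effects for hepatic necrosis, drawn from the training data of DILIps, a prediction system for drug-induced liver injury; call rule not given here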;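 on HepSE hepatomegaly: hepatic side effect score for hepatomegaly, taken from the training set of the DILIps drug-induced liver injury prediction system; call rule not given here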;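 on HepSE jaundice: Jaundice-related hepatic side-effect score drawn from the training data of the DILIps (drug-induced liver injury prediction system); call rule not given here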; on HepSE liver disease: call rule not given here
[2] = system: Hepatotoxicity; remark: listed apart in the source;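 on HepSE Combined Scores: combined hepatic side effect score as listed in the training data of the Drug Induced Liver Injury Prediction System (DILIps)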;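 on HepSE cholecystitis: Cholecystitis-related hepatic side effect score drawn from the DILIps (drug-induced liver injury prediction) training data set; call rule not given here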;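 on HepSE cirrhosis: cirrhosis hepatic side effect score taken from the DILIps (drug-induced liver injury prediction) training set; call rule not given here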;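 on HepSE hepatic necrosis: score of hepatic side effects for hepatic necrosis, drawn from the training data of DILIps, a prediction system for drug-induced liver injury; call rule not given here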;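 on HepSE hepatomegaly: hepatic side effect score for hepatomegaly, taken from the training set of the DILIps drug-induced liver injury prediction system; call rule not given here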;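 on HepSE jaundice: Jaundice-related hepatic side-effect score drawn from the training data of the DILIps (drug-induced liver injury prediction system); call rule not given here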; on HepSE liver disease: call rule not given here
[3] = system: Hepatotoxicity; remark: listed apart in the source;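 on HepSE Combined Scores: combined hepatic side effect score as listed in the training data of the Drug Induced Liver Injury Prediction System (DILIps)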;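 on HepSE cholecystitis: Cholecystitis-related hepatic side effect score drawn from the DILIps (drug-induced liver injury prediction) training data set; call rule not given here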;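 on HepSE cirrhosis: cirrhosis hepatic side effect score taken from the DILIps (drug-induced liver injury prediction) training set; call rule not given here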;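 on HepSE hepatic necrosis: score of hepatic side effects for hepatic necrosis, drawn from the training data of DILIps, a prediction system for drug-induced liver injury; call rule not given here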;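 on HepSE jaundice: Jaundice-related hepatic side-effect score drawn from the training data of the DILIps (drug-induced liver injury prediction system); call rule not given here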; on HepSE liver disease: call rule not given here
[4] = system: Hepatotoxicity; remark: listed apart in the source;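 on HepSE Combined Scores: combined hepatic side effect score as listed in the training data of the Drug Induced Liver Injury Prediction System (DILIps)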;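 on HepSE cholecystitis: Cholecystitis-related hepatic side effect score drawn from the DILIps (drug-induced liver injury prediction) training data set; call rule not given here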;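 on HepSE cirrhosis: cirrhosis hepatic side effect score taken from the DILIps (drug-induced liver injury prediction) training set; call rule not given here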;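 on HepSE hepatic necrosis: score of hepatic side effects for hepatic necrosis, drawn from the training data of DILIps, a prediction system for drug-induced liver injury; call rule not given here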;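 on HepSE jaundice: Jaundice-related hepatic side-effect score drawn from the training data of the DILIps (drug-induced liver injury prediction system); call rule not given here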; on HepSE liver disease: call rule not given here
[5] = system: Hepatotoxicity; remark: listed apart in the source; on HepSE liver disease: call rule not given here
[6] = system: Hepatotoxicity; remark: listed apart in the source; on HepSE liver disease: call rule not given here
[7] = system: Hepatotoxicity; remark: listed apart in the source
[8] = system: Hepatotoxicity; remark: listed apart in the source
[9] = system: Hepatotoxicity; remark: listed apart in the source
[10] = system: Hepatotoxicity; remark: listed apart in the source
[11] = system: Hepatotoxicity; remark: listed apart in the source
[12] = system: Hepatotoxicity; remark: listed apart in the source
[13] = system: Hepatotoxicity; remark: listed apart in the source
[14] = system: Hepatotoxicity; remark: listed apart in the source

| SMILES | HepSE_jaundice [1] | HepSE_cholecystitis [2] | HepSE_hepatic necrosis [3] | HepSE_cirrhosis [4] | HepSE_liver disease [5] | HepSE_Combined Scores [6] | HepSE_hepatomegaly [7] | HepSE_elevated liver function tests [8] | HepSE_bilirubinemia [9] | HepSE_hepatic failure [10] | HepSE_liver fatty [11] | HepSE_hepatitis [12] | HepSE_liver function tests abnormal [13] | HepSE_cholelithiasis [14] | also measured |
| --- | --- | --- | --- | --- | --- | --- | --- | --- | --- | --- | --- | --- | --- | --- | --- |
| Cc1cn([C@H]2C[C@H](O)[C@@H](CO)O2)c(=O)[nH]c1=O [DOXRIBTIMINE] | 0 | 0 | 0 | 0 | 0 | 1 | 0 | 0 | 0 | 0 | 0 | 1 | 0 | 0 |  |
| CC[C@@H]1/C=C(\C)C[C@H](C)C[C@H](OC)[C@H]2O[C@@](O)(C(=O)C(=O)N3CCCC[C@H]3C(=O)O[C@H](/C(C)=C/[C@@H]3CC[C@H](Cl)[C@H](OC)C3)[C@H](C)[C@@H](O)CC1=O)[C@H](C)C[C@@H]2OC [PIMECROLIMUS] | 0 | 0 | 0 | 0 | 0 | 0 | 0 | 0 | 0 | 0 | 0 | 0 | 0 | 0 |  |
| CC1=C(C(=O)O)N2C(=O)[C@@H](NC(=O)[C@H](N)C3=CCC=CC3)[C@H]2SC1 [CEPHRADINE] | 0 | 0 | 0 | 0 | 0 | 0 | 0 | 0 | 0 | 0 | 0 | 0 | 0 | 0 |  |
| CC1=C(CC(=O)O)c2cc(F)ccc2/C1=C\c1ccc([S+](C)[O-])cc1 (configuration not stated) | 1 | 1 | 0 | 0 | 0 | 4 | 0 | 0 | 0 | 1 | 0 | 1 | 0 | 0 |  |
| CO[C@H]1/C=C/O[C@@]2(C)Oc3c(C)c(O)c4c(O)c(c5c(nc6cc(C)ccn65)c4c3C2=O)NC(=O)/C(C)=C\C=C\[C@H](C)[C@H](O)[C@@H](C)[C@@H](O)[C@@H](C)[C@H](OC(C)=O)[C@@H]1C [RIFAXIMIN] | 0 | 0 | 0 | 0 | 0 | 0 | 0 | 0 | 0 | 0 | 0 | 0 | 0 | 0 |  |
| CN1CCN2c3ncccc3Cc3ccccc3C2C1 (configuration not stated) [MIRTAZAPINE] | 0 | 1 | 0 | 1 | 0 | 3 | 0 | 0 | 0 | 0 | 0 | 0 | 1 | 0 |  |
| CN1C2CCCC1CC(NC(=O)c1nn(C)c3ccccc13)C2 (configuration not stated) [GRANISETRON] | 1 | 0 | 0 | 0 | 0 | 3 | 0 | 0 | 1 | 0 | 0 | 0 | 1 | 0 |  |
| COc1ccc2c3c1O[C@H]1C(=O)CC[C@@]4(O)[C@@H](C2)N(C)CC[C@]314 [OXYCODONE] |  |  |  |  |  |  |  |  |  |  |  |  |  |  | HepSE_jaundice ([1]; Liver): 0; HepSE_cholecystitis ([2]; Liver): 0; HepSE_hepatic necrosis ([3]; Liver): 0; HepSE_cirrhosis ([4]; Liver): 0; HepSE_liver disease ([5]; Liver): 0; HepSE_Combined Scores ([6]; Liver): 1; HepSE_hepatomegaly ([7]; Liver): 1; HepSE_elevated liver function tests ([8]; Liver): 0; HepSE_bilirubinemia ([9]; Liver): 0; HepSE_hepatic failure ([10]; Liver): 0; HepSE_liver fatty ([11]; Liver): 0; HepSE_hepatitis ([12]; Liver): 0; HepSE_liver function tests abnormal ([13]; Liver): 0; HepSE_cholelithiasis ([14]; Liver): 0 |
| CNC(=O)c1c(I)c(NC(C)=O)c(I)c(C(=O)[O-])c1I.[Na+] [IOTHALAMATE SODIUM] | 0 | 0 | 0 | 0 | 0 | 0 | 0 | 0 | 0 | 0 | 0 | 0 | 0 | 0 |  |
| Cl.N [AMMONIUM CHLORIDE] | 0 | 0 | 0 | 0 | 0 | 0 | 0 | 0 | 0 | 0 | 0 | 0 | 0 | 0 |  |
| CCc1cccc2c3c([nH]c12)C(CC)(CC(=O)O)OCC3 (configuration not stated) [ETODOLAC] | 1 | 0 | 1 | 0 | 0 | 4 | 0 | 0 | 0 | 1 | 0 | 1 | 0 | 0 |  |
| NC(=O)C[S+]([O-])C(c1ccccc1)c1ccccc1 (configuration not stated) [MODAFINIL] | 0 | 0 | 0 | 0 | 0 | 0 | 0 | 0 | 0 | 0 | 0 | 0 | 0 | 0 |  |
| O=C(O)O [BICARBONATE] |  |  |  |  |  |  |  |  |  |  |  |  |  |  | HepSE_jaundice ([1]; Liver): 0; HepSE_cholecystitis ([2]; Liver): 0; HepSE_hepatic necrosis ([3]; Liver): 0; HepSE_cirrhosis ([4]; Liver): 0; HepSE_liver disease ([5]; Liver): 0; HepSE_Combined Scores ([6]; Liver): 0; HepSE_hepatomegaly ([7]; Liver): 0; HepSE_elevated liver function tests ([8]; Liver): 0; HepSE_bilirubinemia ([9]; Liver): 0; HepSE_hepatic failure ([10]; Liver): 0; HepSE_liver fatty ([11]; Liver): 0; HepSE_hepatitis ([12]; Liver): 0; HepSE_liver function tests abnormal ([13]; Liver): 0; HepSE_cholelithiasis ([14]; Liver): 0 |
